Experimental data as given in patent EP0279079B1, “Purine derivatives as interleukin-1 inhibitors” (HOECHST MARION ROUSSEL, Inc., priority 1986, dated 1988).

What was measured:
[1] = test system: polymorphonuclear neutrophil (PMN); assay: PMN adherence on nylon fiber column; type: cell-based, human; settings: for percent adherence of PMN on the nylon column: three conditions: M199 "control", IL-1 80U/ml, "LPS KINE"
Experimental: (§1) Purified human IL-1 was obtained from Cistron Technology, Pinebrook, New Jersey. As is known, the production of IL-1 from macrophages or circulating monocytes can be stimulated by the presence of bacterial lipopolysaccharides. Stites et al, Basic and Clinical Immunology, page 87 (1984). Accordingly, in vitro-generated IL-1 was obtained through the incubation of mononuclear leukocytes. Mononuclear leukocytes (3 x 10^6/ml) from ficoll-hypaque separation were incubated in medium 199 (M199) containing 10% fresh autologous serum with or without lipopolysaccharides 5ng/ml or with or without supernatant from C. albicans culture for 18 hours at 37° C (10% CO2) in LAB-TEK Flaskettes (Miles Inc., Naperville, Illinois). The suspension was centrifuged (150g X 10 minutes) and the supernatant filtered (0.45 micron 4) and frozen (-70° C).
Purified PMN (5 x 10^6/ml) were incubated 30 minutes at 37°C in M199, "NONE", LPS (1ng/ml), "LPS", mononuclear leukocyte conditioned medium, "CONT KINES", or in LPS stimulated mononuclear leukocyte conditioned medium, "LPS KINES". One ml was pipetted onto the top of a nylon fiber column and incubated at 37°C for 30 minutes. The PMN in the effluent samples were counted and the percent adherence of PMN on the column determined.
Two tenths ml of purified PMN (1 x 10^7/ml) was incubated 30 minutes at 37°C in M199, "control", or M199 containing IL-1 (80U/ml), "IL-1", or in LPS stimulated mononuclear leukocyte conditioned medium, "LPS KINE", with or without pentoxifylline (0.1 or 50 micrograms/ml).
Following incubation the samples were diluted to a final concentration of 5 x 10^6/ml with M199 (2% serum). One ml was placed onto the top of a nylon fiber column and incubated at 37°C for 30 minutes. The PMN in the effluent samples were counted and the percent adherence of PMN on the nylon column calculated.

[2] = test system: polymorphonuclear neutrophil (PMN); assay: PMN chemotaxis (directed migration) under agarose, chemoattractant FMLP; type: cell-based, human; settings: for directed migration inhibited by "LPS KINE": LPS stimulated mononuclear leukocyte conditioned M199 2% serum; for directed migration inhibited by interleukin-1: MEM containing IL-1 at 0 to 80 Units/ml
Experimental: as §1
Neutrophils were placed in the center well of a triplet and the chemoattractant (FMLP 10^-7M) was placed in one outer well and M199 was placed in the opposite well. Following 2 hours incubation at 37° C the plates were fixed and stained and the zones of migration measured. The directed migration was the distance in mm that the leading front of PMN moved towards the chemoattractant.
(§2) Pure PMN (5 x 10^6/ml) were incubated for 30 minutes at 37°C with or without pentoxifylline (0.1 or 50 micrograms/ml) in M199 2% serum, "NO ADD", M199 2% serum containing LPS (1ng/ml), "LPS", mononuclear leukocyte conditioned M199 2% serum, "CONT KINE", or LPS stimulated mononuclear leukocyte conditioned M199 2% serum, "LPS KINE". The PMN were concentrated 10 fold prior to application in the under agarose chemotaxis assay.
as §2, with “5%” for “2%”, “supernatant from C. albicans culture, "C.ALB",” for “LPS (1ng/ml), "LPS",”, “C. albicans” for “LPS”, “"C. ALB” for “"LPS”
Pure PMN (5 x 10^6/ml) were incubated for 30 minutes at 37°C with or without pentoxifylline (0.1 or 50 micrograms/ml) in minimum essential medium (MEM) or MEM containing IL-1 at 0 to 80 Units/ml. The PMN were concentrated 10 fold prior to application inthe under agarose chemotaxis assay.

[3] = pentoxifylline 0.1 micrograms/ml
[4] = pentoxifylline 50 micrograms/ml

CC(=O)CCCCn1c(=O)c2c(ncn2C)n(C)c1=O [Pentoxifylline, pentoxifylline]
percent adherence of PMN on the nylon column [1, 3]: decreased
percent adherence of PMN on the column ([1]; pentoxifylline 50 micrograms/ml, all four conditions: M199 "NONE", LPS 1ng/ml, "CONT KINES", "LPS KINES", 30 minutes at 37°C): decreased
percent adherence of PMN on the nylon column [1, 4]: decreased
directed migration inhibited by "LPS KINE" [2, 3]: increased
directed migration inhibited by interleukin-1 [2, 3]: increased
directed migration inhibited by "C.ALB KINE" ([2]; pentoxifylline 50 micrograms/ml, C. albicans stimulated mononuclear leukocyte conditioned M199 5% serum): increased
directed migration inhibited by "LPS KINE" [2, 4]: increased
directed migration inhibited by interleukin-1 [2, 4]: increased
directed migration inhibited by "CONT KINE" ([2]; pentoxifylline 50 micrograms/ml, mononuclear leukocyte conditioned M199 5% serum): increased
